Assay results published in patent publication US9452980B2, “Substituted benzamides” (Hoffmann-La Roche Inc., priority 2009, dated 2016).
Where a name gives a salt, the structure may show the parent alone. Read-outs that look alike come from different tables or passages of the source.

Assays:
[1] = target: rat TAAR1 (Rattus norvegicus (Rat), UniProt Q923Y9); assay: Radioligand binding assay on rat TAAR1; details: read-out: Ki (μM) rat
Procedure, shortened: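 Membranes from HEK293 cells stably expressing rat TAAR1, with Kd checked per batch by saturation. Competition with ³H-(S)-4-[(ethyl-phenyl-amino)-methyl]-4,5-dihydro-oxazol-2-ylamine, compounds 10 pM–10 μM in duplicate, 1 hr at 4 °C. Filtration then scintillation counting; nonspecific binding defined with 10 μM unlabeled ligand.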

[2] = target: mouse TAAR1 (Mus musculus (Mouse), UniProt Q923Y8); assay: Radioligand binding assay on mouse TAAR1; details: read-out: Ki (μM) mouse
Sequence of mouse TAAR1 (Q923Y8 whole entry): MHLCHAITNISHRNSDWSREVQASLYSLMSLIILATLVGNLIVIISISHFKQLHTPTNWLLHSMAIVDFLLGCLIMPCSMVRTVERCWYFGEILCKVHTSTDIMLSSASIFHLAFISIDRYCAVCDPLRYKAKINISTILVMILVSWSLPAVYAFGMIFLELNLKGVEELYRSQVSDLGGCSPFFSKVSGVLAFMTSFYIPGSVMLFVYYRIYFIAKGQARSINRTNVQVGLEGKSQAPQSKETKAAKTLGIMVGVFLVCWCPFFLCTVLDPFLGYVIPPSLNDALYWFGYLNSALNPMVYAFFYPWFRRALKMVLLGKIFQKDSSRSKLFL
Procedure, shortened: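 Membranes were from HEK293 cells stably expressing mouse TAAR1. Compounds from 10 pM to 10 μM, in duplicate, competed with [3H]-(S)-4-[(ethyl-phenyl-amino)-methyl]-4,5-dihydro-oxazol-2-ylamine for 1 h at 4 °C. Nonspecific binding was defined with 10 μM unlabelled ligand, and bound radioactivity was read by filtration and scintillation.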

[3] = rat TAAR1, HEK-293 membranes, second value of cell mouse/rat
[4] = mouse TAAR1, HEK-293 membranes, first value of cell mouse/rat

Sequence of rat TAAR1 (Q923Y9 whole entry): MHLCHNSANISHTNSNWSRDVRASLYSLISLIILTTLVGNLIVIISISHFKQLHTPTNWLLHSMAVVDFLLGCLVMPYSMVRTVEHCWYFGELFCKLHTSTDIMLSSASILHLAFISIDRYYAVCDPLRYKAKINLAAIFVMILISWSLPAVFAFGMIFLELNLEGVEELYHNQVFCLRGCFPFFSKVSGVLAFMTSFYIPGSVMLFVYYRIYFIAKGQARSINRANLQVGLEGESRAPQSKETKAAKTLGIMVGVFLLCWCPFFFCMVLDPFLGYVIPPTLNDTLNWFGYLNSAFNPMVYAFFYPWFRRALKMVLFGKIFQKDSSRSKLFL

Row | Structure (SMILES) | Ki [1, 3] [µM] | Ki [2] [µM] | Ki [1] [µM] | Ki [2, 4] [µM] | further results
1 | Cc1ccc(C(=O)Nc2ccc([C@@H]3CCCNC3)cc2)cc1Cl [Example 225, (S)-3-Chloro-4-methyl-N-(4-(piperidin-3-yl)phenyl)benzamide hydrochloride] | 0.0006 | 0.0189 | – | – | –
2 | Cc1cc(C(=O)Nc2ccc([C@@H]3CCCNC3)cc2)ccc1Cl [Example 226, (S)-4-Chloro-3-methyl-N-(4-(piperidin-3-yl)phenyl)benzamide hydrochloride] | – | 0.0555 | 0.001 | – | –
3 | Cc1ccc(C(=O)Nc2ccc([C@@H]3CCCNC3)cc2)cc1C [Example 227, (S)-3,4-Dimethyl-N-(4-(piperidin-3-yl)phenyl)benzamide hydrochloride] | 0.0012 | 0.177 | – | – | –
4 | O=C(Nc1ccc([C@@H]2CNCCO2)cc1)c1ccc(Cl)cc1F [Example 229, (R)-4-Chloro-2-fluoro-N-(4-(morpholin-2-yl)phenyl)benzamide hydrochloride] | 0.0019 | 0.0218 | – | – | –
5 | O=C(Nc1ccc([C@@H]2CCCNC2)cc1)c1cccc(C(F)(F)F)c1 [Example 234, (S)—N-(4-(Piperidin-3-yl)phenyl)-3-(trifluoromethyl)benzamide hydrochloride] | – | 0.0217 | 0.001 | – | –
6 | O=C(COc1ccc(Cl)cc1)Nc1ccc([C@@H]2CCCNC2)cc1 [Example 235, (S)-2-(4-Chlorophenoxy)-N-(4-(piperidin-3-yl)phenyl)acetamide hydrochloride] | 0.0006 | 0.0334 | – | – | –
7 | CSc1ccc(C(=O)Nc2ccc([C@@H]3CCCNC3)cc2)cc1 [Example 236, (S)-4-(Methylthio)-N-(4-(piperidin-3-yl)phenyl)benzamide hydrochloride] | 0.0014 | – | – | 0.214 | –
8 | CCSc1ccc(C(=O)Nc2ccc([C@@H]3CCCNC3)cc2)cc1 [Example 237, (S)-4-(Ethylthio)-N-(4-(piperidin-3-yl)phenyl)benzamide hydrochloride] | 0.0008 | – | – | 0.0677 | –
9 | O=C(Nc1ccc([C@@H]2CCCNC2)cc1)c1cnc(Cl)cn1 [Example 238, 5-Chloro-pyrazine-2-carboxylic acid ((S)-4-piperidin-3-yl-phenyl)-amide hydrochloride] | 0.0056 | 1.12 | – | – | –
10 | O=C(Nc1ccc([C@H]2CCCNC2)cc1)c1cnc(Cl)cn1 [Example 239, 5-Chloro-pyrazine-2-carboxylic acid ((R)-4-piperidin-3-yl-phenyl)-amide hydrochloride] | 0.0085 | 0.0396 | – | – | –
11 | O=C(Nc1ccc([C@@H]2CCCNC2)cc1)OCc1ccc(Cl)cc1 [Example 240, (S)-4-chlorobenzyl 4-(piperidin-3-yl)phenylcarbamate hydrochloride] | 0.0009 | – | – | 0.0146 | –
12 | O=C(Nc1ccc([C@@H]2CCCNC2)cc1)c1ccc(C(F)(F)F)nc1 [Example 242, (S)—N-(4-(Piperidin-3-yl)phenyl)-6-(trifluoromethyl)nicotinamide hydrochloride] | – | 0.037 | 0.0089 | – | –
13 | Cc1ccc(C(=O)Nc2ccc([C@@H]3CCCNC3)cc2)cn1 [Example 243, (S)-6-Methyl-N-(4-(piperidin-3-yl)phenyl)nicotinamide hydrochloride] | 0.0062 | – | – | 2.12 | –
14 | CSc1ccc(C(=O)Nc2ccc([C@@H]3CCCNC3)cc2)cn1 [Example 244, (S)-6-(Methylthio)-N-(4-(piperidin-3-yl)phenyl)nicotinamide hydrochloride] | 0.0049 | 0.268 | – | – | –
15 | CCSc1cccc(C(=O)Nc2ccc([C@@H]3CCCNC3)cc2)c1 [Example 246, (S)-3-(Ethylthio)-N-(4-(piperidin-3-yl)phenyl)benzamide] | 0.0012 | – | – | 0.0151 | –
16 | O=C(Nc1ccc([C@@H]2CCCNC2)cc1)c1cnc(C(F)(F)F)cn1 [Example 248, (S)—N-(4-(Piperidin-3-yl)phenyl)-5-(trifluoromethyl)pyrazine-2-carboxamide hydrochloride] | 0.0143 | 0.188 | – | – | –
17 | O=C(Nc1ccc([C@@H]2CCCNC2)cc1)c1cnc(OCC(F)(F)F)cn1 [Example 250, (S)—N-(4-(Piperidin-3-yl)phenyl)-5-(2,2,2-trifluoroethoxy)pyrazine-2-carboxamide hydrochloride] | 0.0056 | – | – | 0.288 | –
18 | O=C(Nc1ccc([C@@H]2CCCNC2)cc1)c1cnc(Br)cn1 [Example 251, (S)-5-Bromo-N-(4-(piperidin-3-yl)phenyl)pyrazine-2-carboxamide 2,2,2-trifluoroacetate] | – | – | 0.0054 | 0.48 | –
19 | O=C(Nc1ccc([C@@H]2CCCNC2)cc1)c1ccc(Br)nc1 [Example 252, (S)-6-Bromo-N-(4-(piperidin-3-yl)phenyl)nicotinamide 2,2,2-trifluoroacetate] | 0.0044 | – | – | 0.0783 | –

Row | Structure (SMILES) | Ki [1, 3] [µM] | Ki [2] [µM] | Ki [1] [µM] | Ki [2, 4] [µM] | further results
20 | Cc1cccc(C(=O)Nc2ccc([C@@H]3CCCNC3)cc2)c1 [Example 253, (S)-3-Methyl-N-(4-(piperidin-3-yl)phenyl)benzamide] | 0.0035 | 0.36 | – | – | –
21 | CCOc1ccc(C(=O)Nc2ccc([C@@H]3CCCNC3)cc2)cn1 [Example 256, (S)-6-Ethoxy-N-(4-(piperidin-3-yl)phenyl)nicotinamide] | 0.012 | – | – | 1.17 | –
22 | CSc1cnc(C(=O)Nc2ccc([C@@H]3CCCNC3)cc2)cn1 [Example 257, (S)-5-(Methylthio)-N-(4-(piperidin-3-yl)phenyl)pyrazine-2-carboxamide] | 0.004 | – | – | 0.786 | –
23 | O=C(Nc1ccc([C@@H]2CCCNC2)cc1)OC1Cc2ccccc2C1 [Example 258, (S)-2,3-Dihydro-1H-inden-2-yl 4-(piperidin-3-yl)phenylcarbamate 2,2,2-trifluoroacetate] | 0.0062 | 0.0225 | – | – | –
24 | CSc1cccc(C(=O)Nc2ccc([C@@H]3CCCNC3)cc2)c1 [Example 259, (S)-3-(Methylthio)-N-(4-(piperidin-3-yl)phenyl)benzamide] | – | – | 0.0009 | 0.044 | –
25 | Cc1ccc(C(=O)Nc2ccc([C@H]3CCCNC3)cc2)cc1C [Example 260, (R)-3,4-Dimethyl-N-(4-(piperidin-3-yl)phenyl)benzamide hydrochloride] | 0.0012 | 0.016 | – | – | –
26 | O=C(Nc1ccc([C@H]2CCCNC2)cc1)c1cccc(C(F)(F)F)c1 [Example 261, (R)—N-(4-(Piperidin-3-yl)phenyl)-3-(trifluoromethyl)benzamide hydrochloride] | – | – | 0.0015 | 0.0027 | –
27 | O=C(Nc1ccc([C@@H]2CNCCO2)cc1)c1cccc(Cl)c1 [Example 262, (R)-3-Chloro-N-(4-(morpholin-2-yl)phenyl)benzamide hydrochloride] | – | 0.0052 | 0.0013 | – | –
28 | O=C(Nc1ccc([C@H]2CNCCO2)cc1)c1cccc(Cl)c1 [Example 263, (S)-3-Chloro-N-(4-(morpholin-2-yl)phenyl)benzamide hydrochloride] | – | 0.0152 | 0.0011 | – | –
29 | Cc1ccc(C(=O)Nc2ccc([C@H]3CCCNC3)cc2)cn1 [Example 264, (R)-6-Methyl-N-(4-(piperidin-3-yl)phenyl)nicotinamide hydrochloride] | 0.0143 | – | – | 0.297 | –
30 | O=C(Nc1ccc([C@H]2CCCNC2)cc1)c1ccc(C(F)(F)F)nc1 [Example 265, (R)—N-(4-(Piperidin-3-yl)phenyl)-6-(trifluoromethyl)nicotinamide hydrochloride] | – | 0.0209 | 0.0059 | – | –
31 | CSc1ccc(C(=O)Nc2ccc([C@@H]3CNCCO3)cc2)cc1 [Example 266, (R)-4-(Methylthio)-N-(4-(morpholin-2-yl)phenyl)benzamide hydrochloride] | – | – | – | – | Ki ([1]; hydrochloride): 0.0012 µM; Ki ([2]; mouse TAAR1, HEK-293 membranes, first value of cell mouse/rat, hydrochloride): 0.0163 µM
32 | O=C(Nc1ccc([C@@H]2CNCCO2)cc1)c1ccc(OCC(F)(F)F)nc1 [Example 268, (R)—N-(4-(Morpholin-2-yl)phenyl)-6-(2,2,2-trifluoroethoxy)nicotinamide hydrochloride] | – | 0.002 | 0.0024 | – | –
33 | O=C(Nc1ccc([C@H]2CNCCO2)cc1)c1ccc(OCC(F)(F)F)nc1 [Example 269, (S)—N-(4-(Morpholin-2-yl)phenyl)-6-(2,2,2-trifluoroethoxy)nicotinamide hydrochloride] | – | 0.0099 | 0.003 | – | –
34 | O=C(Nc1ccc([C@@H]2CNCCO2)cc1)c1cc(Cl)nc(Cl)c1 [Example 270, (R)-2,6-Dichloro-N-(4-(morpholin-2-yl)phenyl)isonicotinamide hydrochloride] | – | 0.0049 | 0.0045 | – | –
35 | O=C(Nc1ccc([C@H]2CNCCO2)cc1)c1cc(Cl)nc(Cl)c1 [Example 271, (S)-2,6-Dichloro-N-(4-(morpholin-2-yl)phenyl)isonicotinamide hydrochloride] | – | 0.0067 | 0.004 | – | –
36 | CCc1cnc(C(=O)Nc2ccc([C@@H]3CCCNC3)cc2)cn1 [Example 274, (S)-5-Ethyl-N-(4-(piperidin-3-yl)phenyl)pyrazine-2-carboxamide hydrochloride] | 0.0174 | – | – | 2.51 | –
37 | CCOc1ccc(C(=O)Nc2ccc([C@@H]3CNCCO3)cc2)cc1 [Example 275, (R)-4-Ethoxy-N-(4-(morpholin-2-yl)phenyl)benzamide hydrochloride] | – | – | 0.0036 | 0.0082 | –
38 | CCOc1ccc(C(=O)Nc2ccc([C@H]3CNCCO3)cc2)cc1 [Example 276, (S)-4-Ethoxy-N-(4-(morpholin-2-yl)phenyl)benzamide hydrochloride] | – | – | 0.0008 | 0.0558 | –
